Marks after values point to notes of the source that are not given here.
Legend:
[1] = tested on: Guinea-pigs sensitized to ovalbumin; experiment: Guinea pig model of asthma, airway hyper-reactivity 24 h after OVA challenge; format: in vivo; conditions: for Cdyn, % increase from that of the positive control / RL, % decrease from that of the positive control: Dexamethasone 15 mg/kg, glycan compounds 10 mg/kg, intratracheal microspray
Procedure: A guinea pig model of asthma was used. Guinea-pigs (8 per group) were sensitized to ovalbumin by two intraperitoneal injections of ovalbumin (grade V, 20 μg) in aluminium hydroxide gel on Days 1 and 11. On day 20 (24 hours prior to assessing airway hyper-reactivity (AHR)) each animal received a challenge dose of OVA—this took the form of a 1 hour aerosol exposure of OVA (10 μg). The negative control animals received, no sensitization and no challenge. The positive controls were sensitized and challenged but were either given no further treatment or were treated with vehicle (saline). Test compounds (PPS and the sulfated xylan pentasaccharide) and vehicle were administered by intratracheal administration as an aqueous microspray using a Penn Century device. The device used was the FMJ250 high pressure syringe and a 1A-1C microspray delivery tube. The particle size delivery goes up to 32 μm. During the study the volume delivered was 100 ul for all test formulations. The test compounds were administered 30 min before challenge with OVA. The animals underwent surgery 24 hours after challenge to insert a cannula into the trachea, the cannula was connected to the instrumentation which measured pressure and changes in airflow. After surgery the animals were allowed to stabilize for 10 min before baseline readings were taken. Bronchoconstriction was evoked with aerosolized methacholine (10 mg/ml and 30 mg/ml) for 20 seconds. The difference between baseline readings and that obtained after methacholine were used to calculate Cdyn and RL. Thus, measurements of lung function were taken approximately 25 hours after the drug was administered. Both pentosan polysulfate and the sulfated xylan pentasaccharide when administered at 10 mg/kg were effective in reducing the airway hyper-reactivity readings. Their efficacy was approximately equivalent to that usually seen with 7.5 mg/kg of dexamethasone in this model.

IL-5 = biological target: T1, IL-5 (Homo sapiens, UniProt P05113); experiment: IL-5 dependent Ba/F-IL-5 cell proliferation (luciferase); format: cell-based; conditions: dose-response, FIG. 4
T1 construct: made in house; host or cells: baculovirus expression system (from the general materials paragraph)
T1 sequence (P05113 20-134): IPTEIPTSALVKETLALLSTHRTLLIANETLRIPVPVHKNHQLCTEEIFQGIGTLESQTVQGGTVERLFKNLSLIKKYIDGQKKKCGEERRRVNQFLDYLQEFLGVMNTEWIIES
Procedure: PPS inhibited the proliferation of an IL-5 responsive cell line. This occurs at very low doses and is not due to a toxic effect of the PPS as other similarly sulfated polysaccharides have no affect in this assay. These experiments are performed with the IL-5 responsive cells, Ba/F-IL-5. The Ba/F-IL-5 cells were derived from the Ba/F3 cell line.
The Ba/F3 cell line was transformed to be both IL-5 dependent and to express luciferase by co-transfection of the cells with pGL3 control vector (Promega, USA) and pEE6 hcmv-IL-5Rα. The control vector, pGL3 expresses a modified luciferase under the direct control of the SV40 promoter and enhancer, but contains no selectable marker. To prepare pEE6 hcmv-hIL-5Rα a full length human IL-5 receptor α chain (hIL-5R-α) was cloned by RT PCR from HL60 cells. The preparation of the Ba/F-IL-5 cells has been described by Coombe et al, Journal of Immunological Methods 215: 145-150, 1998. […]
After transfection, positive transfectants are selected in 3 μg/ml puromycin. […] The cells are counted with a Coulter Z2 Particle Counter and Size Analyzer (Coulter Electronics, England) and routinely 1.6×10^4 cells are added to microplate wells that contain either no IL-5 (negative control) or various dilutions of IL-5. When the effect of PPS, or other sulfated polysaccharides is to be measured, the wells also contain various concentrations of these molecules. […]

[2] = tested on: male C57Bl/6J mice exposed to cigarette smoke; experiment: Mouse model of emphysema/COPD, chronic cigarette smoke exposure; format: in vivo; conditions: chronic smoke exposure 6 months, PPS once a day
Procedure: A mouse model of emphysema was used. Acute and chronic exposure of mice to cigarette smoke lead to lung responses that in part mimic the inflammatory and structural changes observed in COPD. In this model male C57Bl/6J mice are subjected to acute and chronic smoke exposure, with normal room air being the control situation. In the acute study mice were exposed to either room air or to the smoke of five cigarettes (approximately 12 mg of tar and 0.9 mg of nicotine) for 20 minutes. In the chronic study mice were exposed to either room air or to the smoke of three cigarettes/day for 5 days/week for 6 months. The 4 groups of mice were then further divided so that mice within each group also received PPS via an inhaled route.
The animals in the chronic study received PPS once a day for the duration of the experiment. At the completion of the experiment animals were killed and the lungs fixed intratracheally with formalin (5%) and lung volume was measured by water displacement. The lung tissue was prepared for histochemistry and immunohistochemistry, the lung tissues being stained for hematoxylin-eosin and/or periodic acid-Schiff or with antibodies to the macrophage marker Mac-3. The level of desmosine in the lung tissue was also determined. Desmosine is an elastin-specific imino acid; the assessment of desmosine in the lung is taken as an indicator of the lung elastin content. […]

Substance: Pentosan polysulfate [PPS]
- Reduction of airway hyper-reactivity readings (in words) ([1]; 10 mg/kg intratracheal microspray 30 min before OVA challenge): effective
- Cdyn, % increase from that of the positive control ([1]; MCh 10 mg/ml): 38% *
- RL, % decrease from that of the positive control ([1]; MCh 10 mg/ml): 32%
- Cdyn, % increase from that of the positive control ([1]; MCh 30 mg/ml): 49% **
- RL, % decrease from that of the positive control ([1]; MCh 30 mg/ml): 35% **
- Inhibition of IL-5 dependent Ba/F-IL-5 cell proliferation (in words) (IL-5): effective inhibitor
- Overall effect in chronic COPD model [2]: acting as an anti-inflammatory agent
